Measured values as given in US7351721B2, “Amino acid derivatives and pharmaceutical composition comprising, as active ingredients, them” (Ono Pharmaceutical Co., Ltd., priority 1999, dated 2008).

Biological target: T1, N-type calcium channel (Homo sapiens, UniProt Q00975)
T1 construct: endogenous in cells
Assay: Determination of inhibitory activity on N-type calcium channel (Fura-2 fluorescence, KCl depolarization, with nifedipine)
Assay type: cell-based
Settings: compound at final concentration of 3 μM; depolarized with 80 mM potassium chloride; in presence of nifedipine; read-out: Inhibitory effect on calcium flow (%)
Procedure: Determination of Inhibitory Activity on N-type Calcium Channel
Cell line was differentiated according to the method described in FEBS Letters, 235, 178-182, 1988. The cell was loaded with fluorescent reagent, Fura-2·AM (at the final concentration of 10 μM), at 37° C. for 30 minutes and suspended in Krebs-buffer containing HEPES (25 mM) to obtain the cell suspension. The obtained cell suspension was incubated in the presence or absence of the compounds of the present invention with nifedipine for 5 minutes. The cell was depolarized by adding potassium chloride solution (at the final concentration of 80 mM) thereto and then a fluorescence intensity at the emission wavelength of 500 nm excited by the UV of 340 nm and 380 nm alternately was measured using the intracellular calcium analyzer (Nippon Bunko Co., CAF-110). The inhibitory activity of the compound of the present invention (at the final concentration of 3 μM) on calcium influx into the cell was calculated from the difference in changing the fluorescence intensity at peak (ΔR) according to the following equation.

T1 sequence (Q00975 whole entry): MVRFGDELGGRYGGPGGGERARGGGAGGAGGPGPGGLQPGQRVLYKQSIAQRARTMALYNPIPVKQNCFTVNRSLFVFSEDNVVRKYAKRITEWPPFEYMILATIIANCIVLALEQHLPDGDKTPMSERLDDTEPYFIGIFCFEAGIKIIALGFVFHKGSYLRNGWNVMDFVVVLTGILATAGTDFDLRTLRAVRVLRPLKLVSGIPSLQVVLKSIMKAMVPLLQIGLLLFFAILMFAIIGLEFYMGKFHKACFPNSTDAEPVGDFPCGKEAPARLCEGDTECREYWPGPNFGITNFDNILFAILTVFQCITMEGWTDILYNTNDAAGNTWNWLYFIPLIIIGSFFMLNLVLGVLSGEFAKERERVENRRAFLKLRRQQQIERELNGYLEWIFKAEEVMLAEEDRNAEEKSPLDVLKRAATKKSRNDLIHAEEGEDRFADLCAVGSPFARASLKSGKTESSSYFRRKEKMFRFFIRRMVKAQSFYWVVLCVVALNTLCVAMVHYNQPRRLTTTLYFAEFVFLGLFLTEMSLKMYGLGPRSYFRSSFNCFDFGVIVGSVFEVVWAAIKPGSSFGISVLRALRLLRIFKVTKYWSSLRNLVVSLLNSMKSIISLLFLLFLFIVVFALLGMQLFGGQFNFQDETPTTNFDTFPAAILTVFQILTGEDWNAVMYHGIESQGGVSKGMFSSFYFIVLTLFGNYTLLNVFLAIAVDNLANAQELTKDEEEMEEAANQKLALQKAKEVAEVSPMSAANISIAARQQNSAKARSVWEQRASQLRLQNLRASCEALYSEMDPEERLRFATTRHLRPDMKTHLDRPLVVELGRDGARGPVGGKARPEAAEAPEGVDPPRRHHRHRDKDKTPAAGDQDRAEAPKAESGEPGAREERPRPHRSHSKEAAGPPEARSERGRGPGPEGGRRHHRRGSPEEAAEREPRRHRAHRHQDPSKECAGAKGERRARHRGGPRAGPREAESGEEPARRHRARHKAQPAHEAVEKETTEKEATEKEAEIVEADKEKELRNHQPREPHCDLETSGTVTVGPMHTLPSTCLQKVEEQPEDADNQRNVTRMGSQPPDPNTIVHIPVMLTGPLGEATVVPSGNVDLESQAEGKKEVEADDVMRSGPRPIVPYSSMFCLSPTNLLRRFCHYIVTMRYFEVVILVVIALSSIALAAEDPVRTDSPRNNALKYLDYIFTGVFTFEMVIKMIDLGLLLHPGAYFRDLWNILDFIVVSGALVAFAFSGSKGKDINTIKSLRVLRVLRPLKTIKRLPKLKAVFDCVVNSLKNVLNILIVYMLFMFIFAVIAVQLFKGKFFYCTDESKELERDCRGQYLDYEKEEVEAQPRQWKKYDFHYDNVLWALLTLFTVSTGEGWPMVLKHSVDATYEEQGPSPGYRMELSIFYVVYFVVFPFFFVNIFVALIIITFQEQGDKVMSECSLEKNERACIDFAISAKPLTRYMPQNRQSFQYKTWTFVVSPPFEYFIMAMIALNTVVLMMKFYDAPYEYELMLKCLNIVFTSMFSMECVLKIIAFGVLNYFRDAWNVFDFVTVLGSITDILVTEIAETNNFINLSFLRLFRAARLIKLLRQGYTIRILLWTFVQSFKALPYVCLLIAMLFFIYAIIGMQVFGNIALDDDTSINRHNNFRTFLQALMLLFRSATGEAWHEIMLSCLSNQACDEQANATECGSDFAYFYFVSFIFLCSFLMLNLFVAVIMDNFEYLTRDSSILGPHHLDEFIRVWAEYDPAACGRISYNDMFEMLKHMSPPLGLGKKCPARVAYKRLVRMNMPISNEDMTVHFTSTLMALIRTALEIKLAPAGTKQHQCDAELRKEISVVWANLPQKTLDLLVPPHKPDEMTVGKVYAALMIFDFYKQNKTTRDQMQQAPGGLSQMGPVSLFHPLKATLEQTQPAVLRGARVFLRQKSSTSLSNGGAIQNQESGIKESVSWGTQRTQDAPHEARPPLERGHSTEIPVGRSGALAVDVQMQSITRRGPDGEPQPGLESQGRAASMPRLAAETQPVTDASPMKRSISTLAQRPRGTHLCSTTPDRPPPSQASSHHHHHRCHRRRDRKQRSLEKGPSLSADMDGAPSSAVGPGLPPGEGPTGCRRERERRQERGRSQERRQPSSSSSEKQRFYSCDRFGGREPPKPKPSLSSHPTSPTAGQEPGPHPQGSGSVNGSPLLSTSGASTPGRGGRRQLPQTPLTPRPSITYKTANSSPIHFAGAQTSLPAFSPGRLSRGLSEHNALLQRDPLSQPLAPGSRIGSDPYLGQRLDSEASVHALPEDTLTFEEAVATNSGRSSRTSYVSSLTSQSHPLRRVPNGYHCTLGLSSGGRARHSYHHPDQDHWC

CC(C)(C)OC(=O)N1CSC[C@H]1C(=O)N[C@@H](CSCC1CCCCC1)C(=O)NC1CCN(Cc2ccccc2)CC1 [compound 2, (2R)-N-(1-benzylpiperidin-4-yl)-3-cyclohexylmethylthio-2-((4R)-3-t-butoxycarbonylthiazolidin-4-ylcarbonylamino)propanamide]
inhibition at 3 µM: 95%
